# From publication PMC8799717, “Pharmacological targeting PIKfyve and tubulin as an effective treatment strategy for double-hit lymphoma” (Cell Death Discovery, 2022)
# Assays:
# Assay in all cases: biochemical
# Design in all cases: KINOMEscan active-site-directed competition binding panel, 468 kinases, percent of DMSO control at 1 uM
# Settings in all cases: KINOMEscan binding, percent of DMSO control; read-out: Ctrl%
# [1] = biological target: T1, ABL1(F317I)-nonphosphorylated (Homo sapiens, UniProt P00519, F317I)
# T1 construct: nonphosphorylated
# [2] = biological target: T2, ABL1(H396P)-nonphosphorylated (Homo sapiens, UniProt P00519, H396P)
# T2 construct: nonphosphorylated
# AKT1 = AKT1 (Homo sapiens, UniProt P31749)
# AKT1, sequence (P31749 whole entry): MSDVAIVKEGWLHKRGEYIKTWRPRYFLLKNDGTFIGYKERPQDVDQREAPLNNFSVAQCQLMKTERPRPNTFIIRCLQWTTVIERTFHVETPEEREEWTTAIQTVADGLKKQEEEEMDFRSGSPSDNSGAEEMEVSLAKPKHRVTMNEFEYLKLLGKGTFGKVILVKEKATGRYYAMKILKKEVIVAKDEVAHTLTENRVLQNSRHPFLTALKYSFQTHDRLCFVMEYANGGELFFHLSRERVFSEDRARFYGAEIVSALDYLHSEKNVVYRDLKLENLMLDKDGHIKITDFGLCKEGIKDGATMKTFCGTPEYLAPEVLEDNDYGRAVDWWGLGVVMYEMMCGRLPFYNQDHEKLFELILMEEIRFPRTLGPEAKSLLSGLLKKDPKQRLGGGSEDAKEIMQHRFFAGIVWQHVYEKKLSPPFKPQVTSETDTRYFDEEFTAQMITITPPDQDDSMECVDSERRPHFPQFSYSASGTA
# CAMKK1 = CAMKK1 (Homo sapiens, UniProt Q8N5S9)
# CDC2L1 = biological target: T3, CDC2L1 (Homo sapiens, UniProt P21127)
# T3 construct: gene CDK11B
# [3] = biological target: EGFR(L747-E749del, A750P) (Homo sapiens, UniProt P00533, A750P/DEL747-749)
# EGFR(L747-E749del, A750P), sequence (P00533 with tags, fused parts or gaps DEL747-749/A750P): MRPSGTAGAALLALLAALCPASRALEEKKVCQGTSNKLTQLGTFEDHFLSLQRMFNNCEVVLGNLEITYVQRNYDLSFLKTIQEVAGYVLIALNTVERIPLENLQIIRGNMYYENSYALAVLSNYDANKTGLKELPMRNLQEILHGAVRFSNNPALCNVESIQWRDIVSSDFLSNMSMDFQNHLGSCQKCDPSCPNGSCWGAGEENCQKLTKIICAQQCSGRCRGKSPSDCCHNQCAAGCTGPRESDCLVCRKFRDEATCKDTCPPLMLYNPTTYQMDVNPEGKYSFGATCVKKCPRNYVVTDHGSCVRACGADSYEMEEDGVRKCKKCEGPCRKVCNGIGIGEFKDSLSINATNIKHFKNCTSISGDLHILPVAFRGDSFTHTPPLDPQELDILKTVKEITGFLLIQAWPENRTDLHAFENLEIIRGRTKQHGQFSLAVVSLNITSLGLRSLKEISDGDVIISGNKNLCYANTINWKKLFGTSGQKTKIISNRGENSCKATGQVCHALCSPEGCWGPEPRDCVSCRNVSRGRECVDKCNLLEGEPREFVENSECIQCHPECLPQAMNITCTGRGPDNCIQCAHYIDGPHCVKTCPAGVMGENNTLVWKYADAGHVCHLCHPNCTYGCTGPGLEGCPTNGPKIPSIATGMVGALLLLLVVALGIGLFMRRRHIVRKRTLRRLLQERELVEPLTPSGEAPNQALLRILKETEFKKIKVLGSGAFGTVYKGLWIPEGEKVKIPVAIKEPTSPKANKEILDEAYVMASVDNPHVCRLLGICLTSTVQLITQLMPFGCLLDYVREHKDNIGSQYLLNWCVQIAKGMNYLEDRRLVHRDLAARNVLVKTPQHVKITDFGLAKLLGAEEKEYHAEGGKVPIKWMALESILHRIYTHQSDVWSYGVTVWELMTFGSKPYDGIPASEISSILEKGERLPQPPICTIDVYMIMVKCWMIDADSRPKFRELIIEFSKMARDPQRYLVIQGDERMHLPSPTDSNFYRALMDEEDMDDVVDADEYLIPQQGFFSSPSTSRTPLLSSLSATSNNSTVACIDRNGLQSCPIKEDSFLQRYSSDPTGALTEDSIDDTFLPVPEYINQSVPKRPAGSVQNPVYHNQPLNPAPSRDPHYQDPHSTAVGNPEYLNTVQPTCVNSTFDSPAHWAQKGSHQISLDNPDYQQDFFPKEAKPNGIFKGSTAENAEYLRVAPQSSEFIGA
# FYN = FYN (Homo sapiens, UniProt P06241)
# INSR = INSR (Homo sapiens, UniProt P06213)
# IRAK3 = IRAK3 (Homo sapiens, UniProt Q9Y616)
# [4] = biological target: T4, JAK1(JH1domain-catalytic) (Homo sapiens, UniProt P23458)
# T4 construct: JH1domain-catalytic
# MELK = MELK (Homo sapiens, UniProt Q14680)
# MELK, sequence (Q14680 whole entry): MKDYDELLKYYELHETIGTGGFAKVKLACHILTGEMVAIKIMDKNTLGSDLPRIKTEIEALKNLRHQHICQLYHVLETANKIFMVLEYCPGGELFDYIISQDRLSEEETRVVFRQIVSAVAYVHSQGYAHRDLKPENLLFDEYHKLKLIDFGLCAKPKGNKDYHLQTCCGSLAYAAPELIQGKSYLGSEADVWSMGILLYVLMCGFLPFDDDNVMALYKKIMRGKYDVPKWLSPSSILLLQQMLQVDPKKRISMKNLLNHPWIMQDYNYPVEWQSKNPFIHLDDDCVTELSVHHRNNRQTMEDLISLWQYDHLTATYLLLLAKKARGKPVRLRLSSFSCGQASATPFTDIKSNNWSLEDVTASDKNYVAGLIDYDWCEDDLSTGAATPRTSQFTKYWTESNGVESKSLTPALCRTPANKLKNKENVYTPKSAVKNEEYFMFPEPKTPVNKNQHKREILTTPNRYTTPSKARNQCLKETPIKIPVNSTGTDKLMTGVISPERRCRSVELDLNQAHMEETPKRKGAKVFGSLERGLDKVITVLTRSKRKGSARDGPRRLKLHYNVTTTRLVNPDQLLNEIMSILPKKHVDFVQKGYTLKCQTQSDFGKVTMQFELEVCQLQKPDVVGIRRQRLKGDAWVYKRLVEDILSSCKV
# MKNK2 = MKNK2 (Homo sapiens, UniProt Q9HBH9)
# PCTK3 = biological target: T5, PCTK3 (Homo sapiens, UniProt Q07002)
# T5 construct: gene CDK18
# PFTK1 = biological target: T6, PFTK1 (Homo sapiens, UniProt O94921)
# T6 construct: gene CDK14
# PIK3CA(H1047L) = PIK3CA(H1047L) (Homo sapiens, UniProt P42336, H1047L)
# PIK3CA(H1047L), sequence (P42336 whole entry H1047L): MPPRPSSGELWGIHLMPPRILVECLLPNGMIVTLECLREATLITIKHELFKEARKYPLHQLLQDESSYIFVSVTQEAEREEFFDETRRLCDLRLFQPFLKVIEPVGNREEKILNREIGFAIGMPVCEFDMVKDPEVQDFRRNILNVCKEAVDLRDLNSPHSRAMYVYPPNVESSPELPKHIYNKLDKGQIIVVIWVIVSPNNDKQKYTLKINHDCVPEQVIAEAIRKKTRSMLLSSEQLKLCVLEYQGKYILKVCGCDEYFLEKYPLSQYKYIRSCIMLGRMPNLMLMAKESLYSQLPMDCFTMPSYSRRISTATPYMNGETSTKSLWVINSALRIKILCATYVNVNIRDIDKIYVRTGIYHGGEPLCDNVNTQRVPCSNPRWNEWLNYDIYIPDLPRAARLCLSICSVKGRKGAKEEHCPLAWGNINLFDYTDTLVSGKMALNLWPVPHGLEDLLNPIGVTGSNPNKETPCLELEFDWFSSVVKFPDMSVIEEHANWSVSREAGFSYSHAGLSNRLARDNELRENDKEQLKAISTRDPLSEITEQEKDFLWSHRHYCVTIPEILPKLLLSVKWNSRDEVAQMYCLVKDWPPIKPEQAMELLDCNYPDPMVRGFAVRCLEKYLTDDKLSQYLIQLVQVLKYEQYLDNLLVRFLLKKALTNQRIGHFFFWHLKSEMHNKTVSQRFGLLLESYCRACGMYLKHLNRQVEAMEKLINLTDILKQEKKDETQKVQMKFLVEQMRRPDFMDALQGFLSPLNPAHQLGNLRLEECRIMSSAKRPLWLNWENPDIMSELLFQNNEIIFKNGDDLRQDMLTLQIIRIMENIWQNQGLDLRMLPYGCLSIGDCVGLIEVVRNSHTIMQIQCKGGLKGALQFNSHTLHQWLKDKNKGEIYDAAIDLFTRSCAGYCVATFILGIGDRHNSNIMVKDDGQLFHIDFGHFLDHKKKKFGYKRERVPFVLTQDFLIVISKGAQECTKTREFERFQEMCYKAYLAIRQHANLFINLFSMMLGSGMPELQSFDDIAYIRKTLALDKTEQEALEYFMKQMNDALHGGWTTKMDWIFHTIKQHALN
# PIK3CA(I800L) = PIK3CA(I800L) (Homo sapiens, UniProt P42336, I800L)
# PIK3CA(I800L), sequence (P42336 whole entry I800L): as the sequence (P42336 whole entry H1047L) above, with I800L, L1047H counted along it
# PRKCH = PRKCH (Homo sapiens, UniProt P24723)
# RET(M918T) = RET(M918T) (Homo sapiens, UniProt P07949, M918T)
# RIOK2 = RIOK2 (Homo sapiens, UniProt Q9BVS4)
# [5] = biological target: T7, RPS6KA4(Kin.Dom.2-C-terminal) (Homo sapiens, UniProt O75676)
# T7 construct: Kin.Dom.2-C-terminal
# T7 sequence (O75676 whole entry): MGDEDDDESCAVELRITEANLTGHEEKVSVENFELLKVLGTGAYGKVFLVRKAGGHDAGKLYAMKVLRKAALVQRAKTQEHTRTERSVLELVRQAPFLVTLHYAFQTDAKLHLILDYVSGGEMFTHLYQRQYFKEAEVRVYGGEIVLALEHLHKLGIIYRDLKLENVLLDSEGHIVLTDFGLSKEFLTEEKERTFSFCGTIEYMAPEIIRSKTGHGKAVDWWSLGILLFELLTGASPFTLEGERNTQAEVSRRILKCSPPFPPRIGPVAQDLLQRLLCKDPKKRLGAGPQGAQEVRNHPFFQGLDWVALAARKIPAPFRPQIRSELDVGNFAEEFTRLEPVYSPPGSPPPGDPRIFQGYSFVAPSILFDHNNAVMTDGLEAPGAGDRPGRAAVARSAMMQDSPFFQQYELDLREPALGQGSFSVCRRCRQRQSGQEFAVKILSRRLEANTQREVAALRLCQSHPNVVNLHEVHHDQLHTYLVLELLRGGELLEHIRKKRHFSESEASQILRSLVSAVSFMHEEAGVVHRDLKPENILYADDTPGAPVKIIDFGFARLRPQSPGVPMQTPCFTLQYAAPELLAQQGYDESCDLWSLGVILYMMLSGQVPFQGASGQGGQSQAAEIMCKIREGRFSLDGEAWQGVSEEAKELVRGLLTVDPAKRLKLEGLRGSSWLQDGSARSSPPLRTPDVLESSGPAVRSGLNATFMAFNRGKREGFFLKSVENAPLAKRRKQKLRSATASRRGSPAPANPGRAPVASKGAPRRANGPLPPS
# [6] = biological target: T8, RSK2(Kin.Dom.1-N-terminal) (Homo sapiens, UniProt P51812)
# T8 construct: gene RPS6KA3; Kin.Dom.1-N-terminal
# [7] = biological target: T9, RSK4(Kin.Dom.2-C-terminal) (Homo sapiens, UniProt Q9UK32)
# T9 construct: gene RPS6KA6; Kin.Dom.2-C-terminal
# T9 sequence (Q9UK32 whole entry): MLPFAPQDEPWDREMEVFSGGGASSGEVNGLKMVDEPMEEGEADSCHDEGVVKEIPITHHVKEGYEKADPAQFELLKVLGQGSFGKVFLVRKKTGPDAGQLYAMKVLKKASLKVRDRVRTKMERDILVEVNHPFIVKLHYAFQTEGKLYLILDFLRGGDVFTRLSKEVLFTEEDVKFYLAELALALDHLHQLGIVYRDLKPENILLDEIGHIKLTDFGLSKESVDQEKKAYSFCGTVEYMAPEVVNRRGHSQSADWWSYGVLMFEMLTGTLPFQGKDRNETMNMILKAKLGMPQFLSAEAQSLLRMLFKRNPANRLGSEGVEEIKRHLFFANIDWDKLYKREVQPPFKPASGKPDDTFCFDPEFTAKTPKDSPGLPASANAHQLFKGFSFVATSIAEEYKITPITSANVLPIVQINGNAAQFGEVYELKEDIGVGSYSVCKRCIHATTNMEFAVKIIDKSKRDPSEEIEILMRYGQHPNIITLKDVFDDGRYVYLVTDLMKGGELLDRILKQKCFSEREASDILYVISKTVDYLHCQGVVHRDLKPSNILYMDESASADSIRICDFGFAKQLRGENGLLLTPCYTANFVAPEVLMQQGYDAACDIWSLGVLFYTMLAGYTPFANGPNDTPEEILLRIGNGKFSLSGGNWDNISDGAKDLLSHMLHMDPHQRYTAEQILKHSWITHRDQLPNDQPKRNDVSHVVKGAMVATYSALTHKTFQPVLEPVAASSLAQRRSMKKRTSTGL
# ULK1 = ULK1 (Homo sapiens, UniProt O75385)
smiles,measurement,setting,value
Cc1ccc(NC(=O)c2cccc(C(F)(F)F)c2)cc1Nc1cc(-c2cccnc2)nc2[nH]ccc12 [HZX-02-059],remaining binding at 1 µM,[1],40%
same,remaining binding at 1 µM,[2],55%
same,remaining binding at 1 µM,AKT1,99%
same,remaining binding at 1 µM,CAMKK1,97%
same,remaining binding at 1 µM,CDC2L1,75%
same,remaining binding at 1 µM,[3],77%
same,remaining binding at 1 µM,FYN,85%
same,remaining binding at 1 µM,INSR,100%
same,remaining binding at 1 µM,IRAK3,92%
same,remaining binding at 1 µM,[4],100%
same,remaining binding at 1 µM,MELK,96%
same,remaining binding at 1 µM,MKNK2,80%
same,remaining binding at 1 µM,PCTK3,84%
same,remaining binding at 1 µM,PFTK1,98%
same,remaining binding at 1 µM,PIK3CA(H1047L),56%
same,remaining binding at 1 µM,PIK3CA(I800L),81%
same,remaining binding at 1 µM,PRKCH,90%
same,remaining binding at 1 µM,RET(M918T),99%
same,remaining binding at 1 µM,RIOK2,91%
same,remaining binding at 1 µM,[5],97%
same,remaining binding at 1 µM,[6],78%
same,remaining binding at 1 µM,[7],97%
same,remaining binding at 1 µM,ULK1,97%
